The supplement of paper PMC4862054

What was measured:
Settings in all cases: incubation time: 72 h
[1] = test system: SK-BR-3; test: normalised response (% of control), CellTiter-Glo; higher = more viable cells (100 = DMSO, 0 = benzethonium chloride kill control)
Protocol: (§1)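 DSRT, 72 h incubation, CellTox Green / CellTiter-Glo readout. Signal is normalised to DMSO and benzethonium chloride controls. Value is the normalised response at dose 3.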

[2] = test system: MDA-MB-453; test: as above
Protocol: as §1

[3] = test system: HCC1143; test: as above
Protocol: as §1

[4] = test system: DU-4475; test: as above
Protocol: as §1

[5] = test system: CAL-148; test: as above
Protocol: as §1

[6] = test system: HCC1599; test: as above
Protocol: as §1

[7] = test system: CAL-85-1; test: as above
Protocol: as §1

[8] = test system: MDA-MB-468; test: as above
Protocol: as §1

[9] = test system: MDA-MB-436; test: as above
Protocol: as §1

[10] = test system: Hs578T; test: as above
Protocol: as §1

[11] = test system: CAL-51; test: as above
Protocol: as §1

[12] = test system: MFM-223; test: as above
Protocol: as §1

[13] = test system: HCC1937; test: as above
Protocol: as §1

[14] = test system: MCF-10A; test: as above
Protocol: as §1

[15] = test system: BT-549; test: as above
Protocol: as §1

[16] = test system: HDQ-P1; test: as above
Protocol: as §1

[17] = test system: BT-474; test: as above
Protocol: as §1

[18] = test system: CAL-120; test: as above
Protocol: as §1

[19] = test system: MDA-MB-231; test: as above
Protocol: as §1

[20] = test system: MDA-MB-453; test: normalised response (% of control), CellTox Green; higher = less cell death (100 = DMSO, 0 = benzethonium chloride kill control)
In short: (§2)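 Breast cancer cell lines in 20 µl suspension were added to 384-well plates containing compound at 5 concentrations, spaced in 10-fold steps across a 10,000-fold range chosen for each compound, and incubated for 72 h. CellTox Green fluorescence was read at 485/520 nm, followed by CellTiter-Glo luminescence after 10 min at room temperature. Signals on each plate were normalised so that 0.1 % DMSO equals 100 and a positive kill control equals 0. Every value in the table is the normalised signal at one concentration of the series.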

[21] = test system: HCC1143; test: as above
In short: as §2

[22] = test system: DU-4475; test: as above
In short: as §2

[23] = test system: CAL-148; test: as above
In short: as §2

[24] = test system: HCC1599; test: as above
In short: as §2

[25] = test system: CAL-85-1; test: as above
In short: as §2

[26] = test system: MDA-MB-468; test: as above
In short: as §2

[27] = test system: MDA-MB-436; test: as above
In short: as §2

[28] = test system: Hs578T; test: as above
In short: as §2

[29] = test system: CAL-51; test: as above
In short: as §2

[30] = test system: MFM-223; test: as above
In short: as §2

[31] = test system: HCC1937; test: as above
In short: as §2

[32] = test system: MCF-10A; test: as above
In short: as §2

[33] = test system: BT-549; test: as above
In short: as §2

[34] = test system: HDQ-P1; test: as above
In short: as §2

[35] = test system: BT-474; test: as above
In short: as §2

[36] = test system: CAL-120; test: as above
In short: as §2

[37] = test system: MDA-MB-231; test: as above
In short: as §2

Row | SMILES | normalised response [1] | normalised response [2] | normalised response [3] | normalised response [4] | normalised response [5] | normalised response [6] | normalised response [7] | normalised response [8] | normalised response [9] | normalised response [10] | normalised response [11] | normalised response [12] | normalised response [13] | normalised response [14] | normalised response [15] | normalised response [16] | normalised response [17] | normalised response [18] | normalised response [19] | normalised response [20] | normalised response [21] | normalised response [22] | normalised response [23] | normalised response [24] | normalised response [25] | normalised response [26] | normalised response [27] | normalised response [28] | normalised response [29] | normalised response [30] | normalised response [31] | normalised response [32] | normalised response [33] | normalised response [34] | normalised response [35] | normalised response [36] | normalised response [37]
1 | COCC1(CO)C(=O)C2CCN1CC2 (centres undefined) [Prima-1 Met] (100 nM) | 98.7% | 104% | 103% | 96.1% | 112% | 119% | 99.7% | 95.8% | 101% | 101% | 99.6% | 107% | 102% | 107% | 106% | 103% | 96.8% | 99.3% | 97.5% | 102% | 83.2% | 101% | 106% | 114% | 95.6% | 145% | 86.5% | 104% | 108% | 108% | 122% | 82% | 102% | 109% | 101% | 102% | 104%
2 | O=C(/C=C/c1cccc(S(=O)(=O)Nc2ccccc2)c1)NO [Belinostat] (100 nM) | 82.7% | 62.3% | 89.1% | 86.4% | 79.8% | 92.3% | 85.6% | 83.6% | 83.6% | 95% | 63.4% | 85.6% | 83.9% | 81.3% | 99.3% | 83.7% | 95% | 87.5% | 85.5% | 100% | 95.4% | 99.4% | 101% | 104% | 94.8% | 131% | 93.2% | 103% | 83.8% | 84.1% | 89.8% | – | 100% | 104% | 96.7% | 99.2% | 76.3%
3 | S=P(N1CC1)(N1CC1)N1CC1 [Thio-TEPA] (500 nM) | 110% | 116% | 97.5% | 104% | 95.6% | 89% | 103% | 101% | 94.8% | 101% | 108% | 98.7% | 95.4% | 106% | 102% | 102% | 95% | 96.1% | 98.8% | 102% | 101% | 101% | 102% | 97.2% | 107% | 69% | 85.2% | 88.8% | 113% | 100% | – | – | 108% | 92.6% | 94.3% | 97% | 105%
4 | CN(C)CCOc1ccc(/C(=C(/CCCl)c2ccccc2)c2ccccc2)cc1 [Toremifene] (100 nM) | 102% | 107% | 103% | 104% | 109% | 102% | 94.6% | 99.1% | 100% | 104% | 100% | 103% | 99.7% | 103% | 101% | 98.2% | 102% | 105% | 105% | 106% | 70.6% | 102% | 84.1% | 99.1% | 98.3% | 127% | – | 99.7% | 110% | 92.6% | – | 71.6% | 92.8% | 74.3% | 101% | 102% | 55.6%
5 | COc1cc(OC2CCN(C)CC2)ccc1Nc1ncc2c(n1)n(C1CCCC1)c(=O)n2C [AZ 3146] (100 nM) | 98.1% | 111% | 98.8% | 99.9% | 99.2% | 98.3% | 102% | 101% | 104% | 94.1% | 115% | 99.2% | 96.2% | 96.7% | 108% | 98.7% | 104% | 99.9% | 99.1% | 104% | 96.7% | 99.8% | 89.9% | 96.6% | 107% | – | 77.7% | 99.1% | 111% | 100% | 96.3% | – | 111% | 96.2% | 98.3% | 96.9% | 92.5%
6 | COc1cc(O)c2c(c1)/C=C/C[C@H](O)[C@H](O)C(=O)/C=C\C[C@H](C)OC2=O [(5Z)-7-Oxozeaenol] (100 nM) | 108% | 108% | 99% | 76.1% | 101% | 91.2% | 88.5% | 92.9% | 104% | 98.9% | 103% | 103% | 92.4% | 84.8% | 76.2% | 84.1% | 95.4% | 101% | 104% | 102% | 89.1% | 96.9% | – | 108% | – | 107% | 104% | 79.4% | 109% | 105% | 105% | – | 91.1% | 85.9% | 104% | 104% | 109%
7 | CNC(=O)c1cccc(-c2ccc3c(N4CCOC[C@@H]4C)nc(N4CCOC[C@@H]4C)nc3n2)c1 [AZD2014] (100 nM) | 64.7% | 80.8% | 92.3% | 97.1% | 85.6% | 119% | 87.6% | 94.7% | 82% | 93.6% | 69.4% | 75.1% | 80.8% | 97.3% | 73.9% | 70.5% | 87.1% | 79.4% | 86.9% | 98.7% | 105% | 103% | 83.9% | 93% | 104% | – | 118% | 107% | 49.6% | 103% | – | 51.3% | 101% | 106% | 102% | 101% | 121%
8 | Cc1ccc(NC(=O)c2ccc(CN3CCN(C)CC3)cc2)cc1Nc1nc(-c2cccnc2)cs1 [Masitinib] (100 nM) | 99% | 106% | 102% | 105% | 106% | 93.8% | 101% | 99.8% | 107% | 102% | 83.5% | 106% | 103% | 91.6% | 107% | 109% | 101% | 97.7% | 111% | 103% | 105% | 99.3% | 95.1% | 101% | 99.3% | 116% | 73.4% | 106% | 104% | 91.6% | – | 68.2% | 91% | 87.1% | 95.3% | 98.9% | 91.5%
9 | O=C(Nc1ccncc1)C(=O)c1cn(Cc2ccc(Cl)cc2)c2ccccc12 [Indibulin] (100 nM) | 96.2% | 89.1% | 98.5% | 106% | 113% | 89.1% | 87.7% | 95.8% | 92% | 100% | 62% | 98.5% | 91.5% | 108% | 81.8% | 96.8% | 98.1% | 97.5% | 106% | 100% | 120% | 105% | 105% | 111% | 81.3% | 136% | 90.3% | – | 100% | 105% | 98.3% | 94.4% | 94.8% | 111% | 101% | 93.1% | 105%
